In patent publication US10407409B2, “6-(5-hydroxy-1H-pyrazol-1-yl)nicotinamide inhibitors of PHD” (Takeda Pharmaceutical Company Limited, priority 2013, dated 2019):

Assays:
[1] = biological target: PHD2 enzyme (residues 181-417) (Homo sapiens (Human), UniProt Q9GZT9); assay: Inhibition of PHD enzyme (LC/MS peptide hydroxylation assay); type: biochemical; conditions: PHD2 (residues 181-417) 5 nM, 60 min pre-incubation; -log(IC50), IC50 molar
Procedure, shortened: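 PHD2 (5 nM final) preincubated with inhibitor 60 min at RT in 50 mM HEPES, 50 mM KCl, 0.5 mM TCEP, 2 uM FeCl2, 0.1 mg/ml BSA, pH 7.3. Reaction started with biotin-peptide (1 uM), 2-oxoglutarate (2 uM), ascorbate (1 mM), quenched at 60 min; hydroxylated product by LC/MS, reported as pIC50.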

[2] = test system: HIF1a protein in H9c2 rat cardiomyocytes; assay: Cell-based HIF-alpha stabilization assay (inhibition of PHD in cells); conditions: Rattus norvegicus, H9c2, 24 h, 24 hrs compound incubation, HIF1a protein by ELISA, read-out: Inhibition of PHD in cells (pEC50) (converted)
Procedure, shortened: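 Rat H9c2 cardiomyocytes, cultured 24 h, were treated 24 h with an 11-point serial dilution of compound. HIF1a in whole-cell lysates was quantified by ELISA as % of the maximal desferrioxamine response. EC50 came from curve fitting; EC50pos is the concentration reaching 50% of the desferrioxamine maximum.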

Sequence of PHD2 enzyme (residues 181-417) (Q9GZT9 181-417): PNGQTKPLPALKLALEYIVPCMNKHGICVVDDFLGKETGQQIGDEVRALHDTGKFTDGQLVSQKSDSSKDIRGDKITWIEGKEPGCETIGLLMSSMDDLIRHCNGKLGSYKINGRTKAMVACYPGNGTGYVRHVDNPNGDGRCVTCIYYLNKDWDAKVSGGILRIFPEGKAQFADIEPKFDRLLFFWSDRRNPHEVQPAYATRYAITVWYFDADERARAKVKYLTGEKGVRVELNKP

Row | PHD Inhibition (pIC50) [1] | SMILES | EC50 [2] [µM]
1 | 7.25 | CN(C)CC1CCN(C(=O)c2ccc(-n3ncc(-c4ccc(C#N)cc4)c3O)nc2)C1 (centres unmarked) [Example 353, 4-(1-(5-(3-((dimethylamino)methyl)pyrrolidine-1-carbonyl)pyridin-2-yl)-5-hydroxy-1H-pyrazol-4-yl)benzonitrile] | 3.55
2 | 8.36 | COCCC1(NC(=O)c2ccc(-n3ncc(-c4ccc(C#N)cc4)c3O)nc2)CCCC1 [Example 354, 6-(4-(4-cyanophenyl)-5-hydroxy-1H-pyrazol-1-yl)-N-(1-(2-methoxyethyl)cyclopentyl)nicotinamide] | 1.58
3 | 7.94 | CCN1CCCC1CN(C)C(=O)c1ccc(-n2ncc(-c3ccc(C#N)cc3C)c2O)nc1 (centres unmarked) [Example 355, 6-(4-(4-cyano-2-methylphenyl)-5-hydroxy-1H-pyrazol-1-yl)-N-((1-ethylpyrrolidin-2-yl)methyl)-N-methylnicotinamide] | 0.724
4 | 8.16 | COCCC1(NC(=O)c2ccc(-n3ncc(-c4ccc(C#N)cc4C)c3O)nc2)CCCC1 [Example 356] | 0.977
5 | 8.46 | COCC[C@@H](C)NC(=O)c1ccc(-n2ncc(-c3ccc(C#N)cc3)c2O)nc1 [Example 357, (R)-6-(4-(4-cyanophenyl)-5-hydroxy-1H-pyrazol-1-yl)-N-(4-methoxybutan-2-yl)nicotinamide] | 2.4
6 | 8.75 | COCC[C@H](C)NC(=O)c1ccc(-n2ncc(-c3ccc(C#N)cc3)c2O)nc1 [Example 358, (S)-6-(4-(4-cyanophenyl)-5-hydroxy-1H-pyrazol-1-yl)-N-(4-methoxybutan-2-yl)nicotinamide] | 1.15
7 | 8.45 | COCC[C@@H](C)NC(=O)c1ccc(-n2ncc(-c3ccc(C#N)cc3C)c2O)nc1 [Example 359, (R)-6-(4-(4-cyano-2-methylphenyl)-5-hydroxy-1H-pyrazol-1-yl)-N-(4-methoxybutan-2-yl)nicotinamide] | 0.537
8 | 8.60 | COCC[C@H](C)NC(=O)c1ccc(-n2ncc(-c3ccc(C#N)cc3C)c2O)nc1 [Example 360, (S)-6-(4-(4-cyano-2-methylphenyl)-5-hydroxy-1H-pyrazol-1-yl)-N-(4-methoxybutan-2-yl)nicotinamide] | 0.407
9 | 7.76 | Cc1cc(C#N)ccc1-c1cnn(-c2ccc(C(=O)N(C)CC3CCCN(C)C3)cn2)c1O (centres unmarked) [Example 361, 6-(4-(4-cyano-2-methylphenyl)-5-hydroxy-1H-pyrazol-1-yl)-N-methyl-N-((1-methylpiperidin-3-yl)methyl)nicotinamide] | 0.457
10 | 7.80 | Cc1cc(C#N)ccc1-c1cnn(-c2ccc(C(=O)N(C)CC3CCN(C(C)C)C3)cn2)c1O (centres unmarked) [Example 362, 6-(4-(4-cyano-2-methylphenyl)-5-hydroxy-1H-pyrazol-1-yl)-N-((1-isopropylpyrrolidin-3-yl)methyl)-N-methylnicotinamide] | 0.525
11 | 7.28 | CCN1CCCC1CN(C)C(=O)c1ccc(-n2ncc(-c3ccc(C#N)cc3)c2O)nc1 (centres unmarked) [Example 363, 6-(4-(4-cyanophenyl)-5-hydroxy-1H-pyrazol-1-yl)-N-((1-ethylpyrrolidin-2-yl)methyl)-N-methylnicotinamide] | 2.09
12 | 6.73 | N#Cc1ccc(-c2cnn(-c3ccc(C(=O)N4CCC[C@@H]4CN4CCCC4)cn3)c2O)cc1 [Example 364, (R)-4-(5-hydroxy-1-(5-(2-(pyrrolidin-1-ylmethyl)pyrrolidine-1-carbonyl)pyridin-2-yl)-1H-pyrazol-4-yl)benzonitrile] | 7.76

The remaining lines, values behind:

Row | SMILES | PHD Inhibition (pIC50) [1] | EC50 [2] [µM]
13 | Cc1c(-c2cnn(-c3ccc(C(=O)N4CCN(C(C)C)[C@H](C)C4)cn3)c2O)ccc(C#N)c1F [Example 337, (R)-2-fluoro-4-(5-hydroxy-1-(5-(4-isopropyl-3-methylpiperazine-1-carbonyl)pyridin-2-yl)-1H-pyrazol-4-yl)-3-methylbenzonitrile] | 8.36 | 1.35
14 | CCN1CCN(C(=O)c2ccc(-n3ncc(-c4ccc(C#N)c(F)c4C)c3O)nc2)C[C@H]1C [Example 338, (R)-4-(1-(5-(4-ethyl-3-methylpiperazine-1-carbonyl)pyridin-2-yl)-5-hydroxy-1H-pyrazol-4-yl)-2-fluoro-3-methylbenzonitrile] | 8.40 | 0.933
15 | Cc1c(-c2cnn(-c3ccc(C(=O)N4CCN(C(C)C)[C@@H](C)C4)cn3)c2O)ccc(C#N)c1F [Example 339, (S)-2-fluoro-4-(5-hydroxy-1-(5-(4-isopropyl-3-methylpiperazine-1-carbonyl)pyridin-2-yl)-1H-pyrazol-4-yl)-3-methylbenzonitrile] | 8.29 | 2.04
16 | Cc1c(-c2cnn(-c3ccc(C(=O)N4CCN(C)[C@H](C)C4)cn3)c2O)ccc(C#N)c1F [Example 340, (R)-4-(1-(5-(3,4-dimethylpiperazine-1-carbonyl)pyridin-2-yl)-5-hydroxy-1H-pyrazol-4-yl)-2-fluoro-3-methylbenzonitrile] | 8.39 | 0.759
17 | CCN1CCN(C(=O)c2ccc(-n3ncc(-c4ccc(C#N)c(F)c4C)c3O)nc2)[C@@H](C)C1 [Example 341, (S)-4-(1-(5-(4-ethyl-2-methylpiperazine-1-carbonyl)pyridin-2-yl)-5-hydroxy-1H-pyrazol-4-yl)-2-fluoro-3-methylbenzonitrile] | 8.47 | 0.589
18 | Cc1c(-c2cnn(-c3ccc(C(=O)N4CC5(CN(C)C5)C4)cn3)c2O)ccc(C#N)c1F [Example 342, 2-fluoro-4-(5-hydroxy-1-(5-(6-methyl-2,6-diazaspiro[3.3]heptane-2-carbonyl)pyridin-2-yl)-1H-pyrazol-4-yl)-3-methylbenzonitrile] | 7.60 | 0.427
19 | Cc1cc(C#N)c(F)cc1-c1cnn(-c2ccc(C(=O)N3CC4(CN(C)C4)C3)cn2)c1O [Example 343, 2-fluoro-4-(5-hydroxy-1-(5-(6-methyl-2,6-diazaspiro[3.3]heptane-2-carbonyl)pyridin-2-yl)-1H-pyrazol-4-yl)-5-methylbenzonitrile] | 8.07 | 1.15
20 | Cc1cc(C#N)ccc1-c1cnn(-c2ccc(C(=O)N3CC(N4CCCCC4)C3)cn2)c1O [Example 344, 4-(5-hydroxy-1-(5-(3-(piperidin-1-yl)azetidine-1-carbonyl)pyridin-2-yl)-1H-pyrazol-4-yl)-3-methylbenzonitrile] | 8.17 | 0.468
21 | Cc1cc(C#N)ccc1-c1cnn(-c2ccc(C(=O)N3CC(N(C)C)C3)cn2)c1O [Example 345, 4-(1-(5-(3-(dimethylamino)azetidine-1-carbonyl)pyridin-2-yl)-5-hydroxy-1H-pyrazol-4-yl)-3-methylbenzonitrile] | 8.35 | 0.363
22 | Cc1cc(C#N)ccc1-c1cnn(-c2ccc(C(=O)N3CCC4(CCN(C)C4)C3)cn2)c1O (centres unmarked) [Example 346, 4-(5-hydroxy-1-(5-(7-methyl-2,7-diazaspiro[4.4]nonane-2-carbonyl)pyridin-2-yl)-1H-pyrazol-4-yl)-3-methylbenzonitrile] | 7.75 | 0.372
23 | Cc1cc(C#N)ccc1-c1cnn(-c2ccc(C(=O)N3CCC(N4CCOCC4)C3)cn2)c1O (centres unmarked) [Example 347, 4-(5-hydroxy-1-(5-(3-morpholinopyrrolidine-1-carbonyl)pyridin-2-yl)-1H-pyrazol-4-yl)-3-methylbenzonitrile] | 8.29 | 0.631
24 | Cc1cc(C#N)ccc1-c1cnn(-c2ccc(C(=O)N3CCC[C@H]3CN3CCCC3)cn2)c1O [Example 348, (S)-4-(5-hydroxy-1-(5-(2-(pyrrolidin-1-ylmethyl)pyrrolidine-1-carbonyl)pyridin-2-yl)-1H-pyrazol-4-yl)-3-methylbenzonitrile] | 7.72 | 0.741
25 | Cc1cc(C#N)ccc1-c1cnn(-c2ccc(C(=O)N3CCC(CN(C)C)C3)cn2)c1O (centres unmarked) [Example 349, 4-(1-(5-(3-((dimethylamino)methyl)pyrrolidine-1-carbonyl)pyridin-2-yl)-5-hydroxy-1H-pyrazol-4-yl)-3-methylbenzonitrile] | 7.77 | 0.479
26 | CN1CCC2(CCN(C(=O)c3ccc(-n4ncc(-c5ccc(C#N)cc5)c4O)nc3)C2)C1 (centres unmarked) [Example 350, 4-(5-hydroxy-1-(5-(7-methyl-2,7-diazaspiro[4.4]nonane-2-carbonyl)pyridin-2-yl)-1H-pyrazol-4-yl)benzonitrile] | 7.26 | 3.31
27 | N#Cc1ccc(-c2cnn(-c3ccc(C(=O)N4CCC(N5CCOCC5)C4)cn3)c2O)cc1 (centres unmarked) [Example 351, 4-(5-hydroxy-1-(5-(3-morpholinopyrrolidine-1-carbonyl)pyridin-2-yl)-1H-pyrazol-4-yl)benzonitrile] | 7.67 | 5.37
28 | N#Cc1ccc(-c2cnn(-c3ccc(C(=O)N4CCC[C@H]4CN4CCCC4)cn3)c2O)cc1 [Example 352, (S)-4-(5-hydroxy-1-(5-(2-(pyrrolidin-1-ylmethyl)pyrrolidine-1-carbonyl)pyridin-2-yl)-1H-pyrazol-4-yl)benzonitrile] | 7.47 | 3.47
